Key:
Assay in all cases: KinomeScan kinase panel
Assay type in all cases: binding
[1] = target: T1, ACVR2B (Homo sapiens, UniProt Q13705)
T1 construct: purchased DiscoveRx Corporation (KinomeScan)
Procedure, shortened: (§1)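 KinomeScan, 442 kinases incl. mutants; cpd 1000 nM; single-concentration inhibition.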

[2] = target: T2, AMPK-alpha2 (Homo sapiens, UniProt P54646)
T2 construct: purchased DiscoveRx Corporation (KinomeScan)
Procedure, shortened: as §1

[3] = target: T3, AXL (Homo sapiens, UniProt P30530)
T3 construct: purchased DiscoveRx Corporation (KinomeScan)
Procedure, shortened: as §1

[4] = target: T4, DMPK (Homo sapiens, UniProt Q09013)
T4 construct: purchased DiscoveRx Corporation (KinomeScan)
Procedure, shortened: as §1

[5] = target: T5, DYRK1A (Homo sapiens, UniProt Q13627)
T5 construct: purchased DiscoveRx Corporation (KinomeScan)
Procedure, shortened: as §1

[6] = target: T6, EGFR(L858R,T790M) (Homo sapiens, UniProt P00533, L858R/T790M)
T6 construct: purchased DiscoveRx Corporation (KinomeScan)
Procedure, shortened: as §1

[7] = target: T7, EGFR(L861Q) (Homo sapiens, UniProt P00533, L861Q)
T7 construct: purchased DiscoveRx Corporation (KinomeScan)
Procedure, shortened: as §1

[8] = target: T8, ERK5 (Homo sapiens, UniProt Q13164)
T8 construct: purchased DiscoveRx Corporation (KinomeScan)
Procedure, shortened: as §1

[9] = target: T9, FAK (Homo sapiens, UniProt Q05397)
T9 construct: purchased DiscoveRx Corporation (KinomeScan)
Procedure, shortened: as §1

[10] = target: T10, FER (Homo sapiens, UniProt P16591)
T10 construct: purchased DiscoveRx Corporation (KinomeScan)
Procedure, shortened: as §1

[11] = target: T11, IKK-alpha (Homo sapiens, UniProt O15111)
T11 construct: purchased DiscoveRx Corporation (KinomeScan)
Procedure, shortened: as §1

[12] = target: T12, INSR (Homo sapiens, UniProt P06213)
T12 construct: purchased DiscoveRx Corporation (KinomeScan)
Procedure, shortened: as §1

[13] = target: T13, LATS2 (Homo sapiens, UniProt Q9NRM7)
T13 construct: purchased DiscoveRx Corporation (KinomeScan)
Procedure, shortened: as §1

[14] = target: T14, LIMK1 (Homo sapiens, UniProt P53667)
T14 construct: purchased DiscoveRx Corporation (KinomeScan)
Procedure, shortened: as §1

[15] = target: T15, MAPKAPK5 (Homo sapiens, UniProt Q8IW41)
T15 construct: purchased DiscoveRx Corporation (KinomeScan)
Procedure, shortened: as §1

[16] = target: T16, MARK2 (Homo sapiens, UniProt Q7KZI7)
T16 construct: purchased DiscoveRx Corporation (KinomeScan)
Procedure, shortened: as §1

[17] = target: T17, MELK (Homo sapiens, UniProt Q14680)
T17 construct: purchased DiscoveRx Corporation (KinomeScan)
Procedure, shortened: as §1

[18] = target: T18, MKK7 (Homo sapiens, UniProt O14733)
T18 construct: purchased DiscoveRx Corporation (KinomeScan)
Procedure, shortened: as §1

[19] = target: T19, MYO3A (Homo sapiens, UniProt Q8NEV4)
T19 construct: purchased DiscoveRx Corporation (KinomeScan)
Procedure, shortened: as §1

[20] = target: T20, NDR1 (Homo sapiens, UniProt Q15208)
T20 construct: purchased DiscoveRx Corporation (KinomeScan)
Procedure, shortened: as §1

[21] = target: T21, NEK6 (Homo sapiens, UniProt Q9HC98)
T21 construct: purchased DiscoveRx Corporation (KinomeScan panel)
Procedure, shortened: as §1

[22] = target: T22, PDPK1 (Homo sapiens, UniProt O15530)
T22 construct: purchased DiscoveRx Corporation (KinomeScan panel)
Procedure, shortened: as §1

[23] = target: T23, PHKG1 (Homo sapiens, UniProt Q16816)
T23 construct: purchased DiscoveRx Corporation (KinomeScan)
Procedure, shortened: as §1

[24] = target: T24, PIK3CA(Q546K) (Homo sapiens, UniProt P42336, Q546K)
T24 construct: purchased DiscoveRx Corporation (KinomeScan)
Procedure, shortened: as §1

[25] = target: T25, PIP5K1A (Homo sapiens, UniProt Q99755)
T25 construct: purchased DiscoveRx Corporation (KinomeScan)
Procedure, shortened: as §1

[26] = target: T26, PIP5K1C (Homo sapiens, UniProt O60331)
T26 construct: purchased DiscoveRx Corporation (KinomeScan)
Procedure, shortened: as §1

[27] = target: T27, PKA7 (Homo sapiens, UniProt Q9P286)
T27 construct: purchased DiscoveRx Corporation (KinomeScan panel)
Procedure, shortened: as §1

[28] = target: T28, RIOK1 (Homo sapiens, UniProt Q9BRS2)
T28 construct: purchased DiscoveRx Corporation
Procedure, shortened: as §1

[29] = target: T29, RSK3(Kin.Dom.2-C-terminal) (Homo sapiens, UniProt Q15349)
T29 construct: Kin.Dom.2; purchased DiscoveRx Corporation (KinomeScan)
Procedure, shortened: as §1

[30] = target: T30, SLK (Homo sapiens, UniProt Q9H2G2)
T30 construct: purchased DiscoveRx Corporation (KinomeScan)
Procedure, shortened: as §1

[31] = target: T31, SRPK1 (Homo sapiens, UniProt Q96SB4)
T31 construct: purchased DiscoveRx Corporation (KinomeScan)
Procedure, shortened: as §1

[32] = target: T32, TNK1 (Homo sapiens, UniProt Q13470)
T32 construct: purchased DiscoveRx Corporation (KinomeScan)
Procedure, shortened: as §1

[33] = target: T33, TNK2 (Homo sapiens, UniProt Q07912)
T33 construct: purchased DiscoveRx Corporation (KinomeScan)
Procedure, shortened: as §1

[34] = target: T34, TRKC (Homo sapiens, UniProt Q16288)
T34 construct: purchased DiscoveRx Corporation (KinomeScan)
Procedure, shortened: as §1

[35] = tested on: TRPM6
Procedure, shortened: as §1

[36] = target: T35, WEE1 (Homo sapiens, UniProt P30291)
T35 construct: purchased DiscoveRx Corporation (KinomeScan service)
Procedure, shortened: as §1

T9 sequence (Q05397 whole entry): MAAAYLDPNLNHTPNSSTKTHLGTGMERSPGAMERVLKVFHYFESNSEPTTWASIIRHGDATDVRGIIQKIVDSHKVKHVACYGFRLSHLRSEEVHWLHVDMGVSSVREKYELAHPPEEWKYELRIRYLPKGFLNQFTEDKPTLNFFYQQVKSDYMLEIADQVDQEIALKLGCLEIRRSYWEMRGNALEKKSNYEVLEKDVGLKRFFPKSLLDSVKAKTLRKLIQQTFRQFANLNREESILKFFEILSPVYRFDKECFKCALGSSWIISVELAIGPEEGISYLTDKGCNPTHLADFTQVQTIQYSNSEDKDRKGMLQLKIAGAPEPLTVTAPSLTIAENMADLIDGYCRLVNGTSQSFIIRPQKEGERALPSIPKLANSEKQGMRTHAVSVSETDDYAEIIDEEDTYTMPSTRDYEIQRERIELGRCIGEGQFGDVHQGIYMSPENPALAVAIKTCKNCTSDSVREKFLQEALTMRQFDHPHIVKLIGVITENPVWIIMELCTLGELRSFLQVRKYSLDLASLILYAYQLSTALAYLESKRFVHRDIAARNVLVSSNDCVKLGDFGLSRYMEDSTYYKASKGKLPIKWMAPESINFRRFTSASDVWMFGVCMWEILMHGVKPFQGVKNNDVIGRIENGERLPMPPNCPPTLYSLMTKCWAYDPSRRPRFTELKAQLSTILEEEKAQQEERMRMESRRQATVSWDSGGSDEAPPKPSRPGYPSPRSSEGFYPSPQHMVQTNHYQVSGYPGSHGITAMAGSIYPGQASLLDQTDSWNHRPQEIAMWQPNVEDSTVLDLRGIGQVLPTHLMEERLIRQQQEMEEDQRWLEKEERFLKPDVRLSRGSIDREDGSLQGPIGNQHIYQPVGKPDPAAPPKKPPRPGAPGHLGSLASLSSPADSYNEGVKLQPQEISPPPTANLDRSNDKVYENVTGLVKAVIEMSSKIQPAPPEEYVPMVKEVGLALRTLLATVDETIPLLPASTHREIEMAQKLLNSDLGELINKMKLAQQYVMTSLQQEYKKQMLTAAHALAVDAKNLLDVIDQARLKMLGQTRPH
T2 sequence (P54646 whole entry): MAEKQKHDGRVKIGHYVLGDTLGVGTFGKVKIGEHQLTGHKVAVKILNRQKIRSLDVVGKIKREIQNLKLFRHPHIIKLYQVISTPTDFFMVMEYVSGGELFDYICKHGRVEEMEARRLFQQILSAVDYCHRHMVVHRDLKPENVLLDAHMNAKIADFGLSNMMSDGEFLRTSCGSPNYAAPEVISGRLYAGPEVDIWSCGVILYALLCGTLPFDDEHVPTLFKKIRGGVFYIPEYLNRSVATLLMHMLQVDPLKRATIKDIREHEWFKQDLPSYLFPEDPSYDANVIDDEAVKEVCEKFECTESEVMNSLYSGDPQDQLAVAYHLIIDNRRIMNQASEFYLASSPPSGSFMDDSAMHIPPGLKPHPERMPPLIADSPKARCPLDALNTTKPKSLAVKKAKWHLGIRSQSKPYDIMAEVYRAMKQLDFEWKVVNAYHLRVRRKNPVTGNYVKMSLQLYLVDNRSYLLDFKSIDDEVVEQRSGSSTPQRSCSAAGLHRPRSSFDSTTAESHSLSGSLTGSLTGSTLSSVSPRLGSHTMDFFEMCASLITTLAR
T33 sequence (Q07912 whole entry): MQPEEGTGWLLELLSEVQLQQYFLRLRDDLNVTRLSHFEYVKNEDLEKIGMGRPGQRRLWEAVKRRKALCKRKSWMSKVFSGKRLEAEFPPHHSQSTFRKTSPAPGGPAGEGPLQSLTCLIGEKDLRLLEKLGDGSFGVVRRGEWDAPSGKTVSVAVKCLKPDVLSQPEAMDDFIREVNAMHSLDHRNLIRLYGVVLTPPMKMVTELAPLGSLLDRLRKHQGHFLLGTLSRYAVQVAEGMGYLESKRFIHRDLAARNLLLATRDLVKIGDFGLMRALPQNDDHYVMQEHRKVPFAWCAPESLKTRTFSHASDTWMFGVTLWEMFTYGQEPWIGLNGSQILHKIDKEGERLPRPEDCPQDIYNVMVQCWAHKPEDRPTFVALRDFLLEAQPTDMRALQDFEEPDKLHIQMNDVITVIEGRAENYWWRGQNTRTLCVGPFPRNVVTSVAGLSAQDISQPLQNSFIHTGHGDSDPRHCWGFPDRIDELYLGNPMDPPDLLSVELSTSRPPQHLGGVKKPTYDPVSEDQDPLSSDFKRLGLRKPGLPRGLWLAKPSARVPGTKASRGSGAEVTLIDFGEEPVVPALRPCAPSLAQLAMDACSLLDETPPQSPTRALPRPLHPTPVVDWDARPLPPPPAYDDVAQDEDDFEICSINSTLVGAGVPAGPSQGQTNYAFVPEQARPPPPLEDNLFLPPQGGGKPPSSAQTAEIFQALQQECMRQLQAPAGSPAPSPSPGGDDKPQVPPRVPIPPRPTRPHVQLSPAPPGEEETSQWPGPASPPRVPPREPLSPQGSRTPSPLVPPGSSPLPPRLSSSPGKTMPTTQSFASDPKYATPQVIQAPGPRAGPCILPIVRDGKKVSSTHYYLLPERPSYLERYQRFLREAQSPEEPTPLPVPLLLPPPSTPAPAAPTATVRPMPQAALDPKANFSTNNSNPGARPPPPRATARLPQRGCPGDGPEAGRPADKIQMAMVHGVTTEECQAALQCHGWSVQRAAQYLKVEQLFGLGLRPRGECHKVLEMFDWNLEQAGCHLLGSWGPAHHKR
T10 sequence (P16591 whole entry): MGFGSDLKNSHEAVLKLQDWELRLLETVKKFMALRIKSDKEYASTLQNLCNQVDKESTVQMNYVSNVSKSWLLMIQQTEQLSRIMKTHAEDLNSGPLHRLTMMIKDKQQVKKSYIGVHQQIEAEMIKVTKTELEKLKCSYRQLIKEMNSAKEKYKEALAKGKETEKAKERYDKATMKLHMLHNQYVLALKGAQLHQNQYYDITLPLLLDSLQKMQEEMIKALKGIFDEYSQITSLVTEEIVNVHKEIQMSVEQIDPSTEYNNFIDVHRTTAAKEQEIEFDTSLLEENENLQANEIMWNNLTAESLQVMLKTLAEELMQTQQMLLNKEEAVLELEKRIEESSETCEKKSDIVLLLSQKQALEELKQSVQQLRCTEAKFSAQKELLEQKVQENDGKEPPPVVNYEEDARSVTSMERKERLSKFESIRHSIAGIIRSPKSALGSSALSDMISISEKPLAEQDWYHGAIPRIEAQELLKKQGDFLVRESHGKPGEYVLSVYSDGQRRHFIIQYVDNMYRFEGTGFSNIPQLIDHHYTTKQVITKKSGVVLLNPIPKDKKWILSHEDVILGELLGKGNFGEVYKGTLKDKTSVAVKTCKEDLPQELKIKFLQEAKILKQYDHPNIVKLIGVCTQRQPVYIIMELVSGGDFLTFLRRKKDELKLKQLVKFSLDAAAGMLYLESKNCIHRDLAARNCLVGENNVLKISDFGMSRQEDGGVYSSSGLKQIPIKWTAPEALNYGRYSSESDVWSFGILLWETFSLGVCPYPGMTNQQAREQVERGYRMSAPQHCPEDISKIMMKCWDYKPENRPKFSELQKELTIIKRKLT
T35 sequence (P30291 whole entry): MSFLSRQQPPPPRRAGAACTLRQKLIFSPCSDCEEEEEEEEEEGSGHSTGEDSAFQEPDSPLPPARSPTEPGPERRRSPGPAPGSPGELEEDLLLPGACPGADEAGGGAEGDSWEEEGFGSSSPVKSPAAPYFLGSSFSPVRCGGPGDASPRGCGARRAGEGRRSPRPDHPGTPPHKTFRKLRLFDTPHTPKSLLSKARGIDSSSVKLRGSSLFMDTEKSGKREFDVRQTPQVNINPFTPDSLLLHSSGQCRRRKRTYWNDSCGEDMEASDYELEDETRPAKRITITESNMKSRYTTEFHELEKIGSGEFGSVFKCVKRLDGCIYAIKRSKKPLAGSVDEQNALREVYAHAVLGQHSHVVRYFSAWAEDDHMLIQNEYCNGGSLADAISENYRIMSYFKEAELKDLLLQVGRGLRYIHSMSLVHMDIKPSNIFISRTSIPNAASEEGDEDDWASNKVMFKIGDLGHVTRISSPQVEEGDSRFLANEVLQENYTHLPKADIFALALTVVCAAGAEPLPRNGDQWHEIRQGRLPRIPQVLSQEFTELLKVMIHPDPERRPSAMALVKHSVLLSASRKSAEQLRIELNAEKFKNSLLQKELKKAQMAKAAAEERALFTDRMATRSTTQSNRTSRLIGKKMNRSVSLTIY
T26 sequence (O60331 whole entry): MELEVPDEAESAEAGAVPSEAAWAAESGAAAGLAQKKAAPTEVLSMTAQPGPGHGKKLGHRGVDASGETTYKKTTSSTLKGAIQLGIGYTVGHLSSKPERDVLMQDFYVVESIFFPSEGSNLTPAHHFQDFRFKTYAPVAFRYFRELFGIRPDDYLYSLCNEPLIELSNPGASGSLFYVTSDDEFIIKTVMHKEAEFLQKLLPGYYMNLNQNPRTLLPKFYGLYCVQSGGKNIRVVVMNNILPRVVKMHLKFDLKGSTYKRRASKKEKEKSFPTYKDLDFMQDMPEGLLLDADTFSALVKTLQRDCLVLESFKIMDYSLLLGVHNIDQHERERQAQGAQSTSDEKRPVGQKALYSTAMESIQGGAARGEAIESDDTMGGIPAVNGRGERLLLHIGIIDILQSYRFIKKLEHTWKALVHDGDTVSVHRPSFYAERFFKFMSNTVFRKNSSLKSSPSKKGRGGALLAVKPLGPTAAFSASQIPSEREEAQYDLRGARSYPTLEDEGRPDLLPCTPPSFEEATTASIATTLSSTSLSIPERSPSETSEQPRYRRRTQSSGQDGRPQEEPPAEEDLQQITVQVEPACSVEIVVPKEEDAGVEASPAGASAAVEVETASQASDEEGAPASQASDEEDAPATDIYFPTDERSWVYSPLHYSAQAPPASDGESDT
T29 sequence (Q15349 415-672 limits assumed): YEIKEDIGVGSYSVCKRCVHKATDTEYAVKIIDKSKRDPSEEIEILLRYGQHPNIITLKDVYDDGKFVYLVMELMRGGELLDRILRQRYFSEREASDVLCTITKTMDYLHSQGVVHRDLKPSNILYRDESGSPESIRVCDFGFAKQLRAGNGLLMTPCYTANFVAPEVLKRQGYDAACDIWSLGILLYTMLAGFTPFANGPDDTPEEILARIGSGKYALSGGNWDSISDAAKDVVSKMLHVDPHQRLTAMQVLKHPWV

CCOP(=O)(CN1CCC(COc2cc3nccc(Oc4ccc(NC(=O)C5(C(=O)Nc6ccc(F)cc6)CC5)cc4F)c3cc2OC)CC1)OCC [Example 10, N1-[4-[[7-[[1-(diethoxyphosphorylmethyl)-4-piperidinyl]methoxyl]-6-methoxyl-4-quinolyl]oxyl]-3-fluorophenyl]-N1′-(4-fluorophenyl)cyclopropane-1,1-dicarboxamide]
% Ctrl@1000 nM [1]: 100 % Ctrl | % Ctrl@1000 nM [2]: 100 % Ctrl | % Ctrl@1000 nM [3]: 8 % Ctrl | % Ctrl@1000 nM [4]: 85 % Ctrl | % Ctrl@1000 nM [5]: 100 % Ctrl | % Ctrl@1000 nM [6]: 100 % Ctrl | % Ctrl@1000 nM [7]: 84 % Ctrl | % Ctrl@1000 nM [8]: 100 % Ctrl | % Ctrl@1000 nM [9]: 51 % Ctrl | % Ctrl@1000 nM [10]: 50 % Ctrl | % Ctrl@1000 nM [11]: 100 % Ctrl | % Ctrl@1000 nM [12]: 54 % Ctrl | % Ctrl@1000 nM [13]: 96 % Ctrl | % Ctrl@1000 nM [14]: 92 % Ctrl | % Ctrl@1000 nM [15]: 100 % Ctrl | % Ctrl@1000 nM [16]: 100 % Ctrl | % Ctrl@1000 nM [17]: 29 % Ctrl | % Ctrl@1000 nM [18]: 100 % Ctrl | % Ctrl@1000 nM [19]: 93 % Ctrl | % Ctrl@1000 nM [20]: 100 % Ctrl | % Ctrl@1000 nM [21]: 100 % Ctrl | % Ctrl@1000 nM [22]: 100 % Ctrl | % Ctrl@1000 nM [23]: 100 % Ctrl | % Ctrl@1000 nM [24]: 100 % Ctrl | % Ctrl@1000 nM [25]: 100 % Ctrl | % Ctrl@1000 nM [26]: 100 % Ctrl | % Ctrl@1000 nM [27]: 100 % Ctrl | % Ctrl@1000 nM [28]: 100 % Ctrl | % Ctrl@1000 nM [29]: 100 % Ctrl | % Ctrl@1000 nM [30]: 7.4 % Ctrl | % Ctrl@1000 nM [31]: 70 % Ctrl | % Ctrl@1000 nM [32]: 30 % Ctrl | % Ctrl@1000 nM [33]: 94 % Ctrl | % Ctrl@1000 nM [34]: 2.2 % Ctrl | % Ctrl@1000 nM [35]: 86 % Ctrl | % Ctrl@1000 nM [36]: 100 % Ctrl

Reference: patent US8933230B2, “Phosphorus-containing group-substituted quinoline, its preparation process, medical composition containing the compounds and application” (priority 2011, dated 2015)
